# Results from patent US9637523B2 (priority 2012, dated 2017).
# “Also recorded” adds a separate entry of the source.
# Tests used:
# [1] = test system: PB1, NS1, NP and M1 of IAV; format: cell-based
# [2] = test system: polymerase subunits PB1, PB2, PA and NP of the avian IAV FPV-Rostock; format: cell-based, A/FPV/Rostock/34 (H7N1)
# avian IAV FPV = format: cell-based
# human IAV PR8 = format: cell-based
compound,measurement,setting,value
Cc1ccc(NC(=O)c2ccc(CN3CCN(C)CC3)cc2)cc1Nc1nccc(-c2cccnc2)n1 [Imatinib],viral protein expression,[1],neither detect an impact
same,viral polymerase activity (luciferase),[2],neither detect an impact
same,replication (progeny virus yields) of avian IAV FPV,avian IAV FPV,interferes with replication properties of the avian IAV FPV in a concentration dependent manner; also recorded: only efficient upon low dose infection
same,replication (progeny virus yields) of human IAV PR8,human IAV PR8,absolutely independent of the tyrosine kinase activity of c-Abl
